Data taken from patent publication US6936585B2, “Corticotropin releasing factor 2 receptor agonists” (priority 2002, dated 2005).
pEC50: −log10 of the molar value. Where two headings read alike, the source gives them in different places. Ends that are not written are not given here. Peptide text beside a SMILES is read from it.

Legend:
CRF2R = target: T1, CRF2R (Homo sapiens, UniProt Q13324); test: CRF2R agonist activation (EC50 / Emax), called comparative CRF binding; type: cell-based; conditions: for Emax: read-out: CRF2R Emax
T1 sequence (Q13324 1-411): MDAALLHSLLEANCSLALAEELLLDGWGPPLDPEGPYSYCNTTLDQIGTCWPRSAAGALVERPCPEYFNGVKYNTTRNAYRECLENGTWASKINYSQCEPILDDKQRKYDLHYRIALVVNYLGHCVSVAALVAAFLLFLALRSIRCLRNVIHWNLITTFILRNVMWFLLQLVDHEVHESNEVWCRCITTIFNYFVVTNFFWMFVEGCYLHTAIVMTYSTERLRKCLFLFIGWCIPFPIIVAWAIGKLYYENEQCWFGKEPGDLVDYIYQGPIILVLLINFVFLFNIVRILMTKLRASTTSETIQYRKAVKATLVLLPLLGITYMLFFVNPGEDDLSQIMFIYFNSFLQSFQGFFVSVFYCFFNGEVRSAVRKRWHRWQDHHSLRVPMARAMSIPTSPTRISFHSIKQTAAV
How it was run: (§1)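 Receptor-expressing cells are contacted with test peptide or the vehicle it is dissolved in. Lysates are then assayed for cAMP, or expression of a CRE-coupled reporter is quantitated. Engineered cells carrying receptor-G-protein fusions may replace full-length receptors.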

CRF1R = target: T2, CRF1R (Homo sapiens, UniProt P34998); test: CRF1R agonist activation (EC50 / Emax), called comparative CRF binding; type: cell-based; conditions: for Emax: read-out: CRF1R Emax
T2 sequence (P34998 24-415): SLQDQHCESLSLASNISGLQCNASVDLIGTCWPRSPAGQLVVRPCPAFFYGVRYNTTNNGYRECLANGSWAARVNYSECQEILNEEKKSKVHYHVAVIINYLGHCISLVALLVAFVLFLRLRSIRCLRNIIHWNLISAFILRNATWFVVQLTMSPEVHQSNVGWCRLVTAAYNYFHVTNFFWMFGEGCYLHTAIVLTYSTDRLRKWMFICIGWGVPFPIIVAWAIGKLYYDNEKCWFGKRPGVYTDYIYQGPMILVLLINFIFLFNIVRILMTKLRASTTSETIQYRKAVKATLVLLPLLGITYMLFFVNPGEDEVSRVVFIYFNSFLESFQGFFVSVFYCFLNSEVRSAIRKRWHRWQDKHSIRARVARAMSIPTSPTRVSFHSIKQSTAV
How it was run: as §1

| Molecule | pEC50 (CRF2R) | pEC50 (CRF1R; CRF1R EC50) | pEC50 (CRF2R; read-out: CRF2R EC50) | Emax (CRF2R) | pEC50 (CRF1R; read-out: CRF1R EC50) | Emax (CRF1R) |
| --- | --- | --- | --- | --- | --- | --- |
| CC[C@H](C)[C@H](NC(=O)[C@H](CO)NC(=O)[C@H](CC(C)C)NC(=O)[C@H](CO)NC(=O)[C@@H]1CCCN1C(=O)[C@H](CC(N)=O)NC(=O)[C@@H](N)CC(=O)O)C(=O)N[C@@H](CC(=O)O)C(=O)N[C@@H](CC(C)C)C(=O)N[C@H](C(=O)N[C@@H](Cc1ccccc1)C(=O)N[C@@H](Cc1cnc[nH]1)C(=O)N[C@@H](CC(C)C)C(=O)N[C@@H](CC(C)C)C(=O)N[C@@H](CCCNC(=N)N)C(=O)N[C@H](C(=O)N[C@@H](CC(C)C)C(=O)N[C@@H](CC(C)C)C(=O)N[C@@H](CCC(=O)O)C(=O)N[C@@H](CC(C)C)C(=O)N[C@@H](C)C(=O)N[C@@H](CCCNC(=N)N)C(=O)N[C@H](C(=O)N[C@@H](CCC(N)=O)C(=O)N[C@@H](CO)C(=O)N[C@@H](CCC(N)=O)C(=O)N[C@@H](CCCNC(=N)N)C(=O)N[C@@H](CCC(=O)O)C(=O)N[C@@H](CCCNC(=N)N)C(=O)N[C@@H](C)C(=O)N[C@@H](CCC(=O)O)C(=O)N[C@@H](CCC(N)=O)C(=O)N[C@@H](CC(N)=O)C(=O)N[C@@H](CCCNC(=N)N)C(=O)N[C@H](C(=O)N[C@H](C(=O)N[C@@H](Cc1ccccc1)C(=O)N[C@@H](CC(=O)O)C(=O)N[C@@H](CO)C(=O)N[C@H](C(N)=O)C(C)C)[C@@H](C)CC)[C@@H](C)CC)[C@@H](C)O)[C@@H](C)O)[C@@H](C)O [hUcnI, human urocortin I, reference compound] (H-DNPSLSIDLTFHLLRTLLELARTQSQRERAEQNRIIFDSV-NH2) | 8.45 | 8.05 | – | – | – | – |
| CC[C@H](C)[C@H](N)C(=O)N[C@H](C(=O)N[C@@H](CC(C)C)C(=O)N[C@@H](CO)C(=O)N[C@@H](CC(C)C)C(=O)N[C@@H](CC(=O)O)C(=O)N[C@H](C(=O)N1CCC[C@H]1C(=O)N[C@H](C(=O)NCC(=O)N[C@@H](CC(C)C)C(=O)N[C@@H](CC(C)C)C(=O)N[C@@H](CCC(N)=O)C(=O)N[C@H](C(=O)N[C@@H](CC(C)C)C(=O)N[C@@H](CC(C)C)C(=O)N[C@@H](CCC(=O)O)C(=O)N[C@@H](CCC(N)=O)C(=O)N[C@@H](C)C(=O)N[C@@H](C)C(=O)N[C@@H](CCCNC(=N)N)C(=O)N[C@@H](CCC(=O)O)C(=O)N[C@@H](CCC(N)=O)C(=O)N[C@@H](C)C(=O)N[C@H](C(=O)N[C@H](C(=O)N[C@@H](CC(N)=O)C(=O)N[C@@H](C)C(=O)N[C@@H](CCCNC(=N)N)C(=O)N[C@H](C(=O)N[C@@H](CC(C)C)C(=O)N[C@@H](C)C(=O)N[C@@H](CCCNC(=N)N)C(=O)N[C@H](C(N)=O)C(C)C)[C@@H](C)CC)[C@@H](C)O)[C@@H](C)O)[C@@H](C)CC)[C@@H](C)CC)C(C)C)C(C)C [compound 138] (H-IVLSLDVPIGLLQILLEQAAREQATTNARILARV-NH2; N-terminus assumed) | – | – | 7.23 | 46% | < 7.00 | 5% |
| CC[C@H](C)[C@H](NC(=O)[C@H](C)NC(=O)[C@H](CC(N)=O)NC(=O)[C@H](CCC(N)=O)NC(=O)[C@H](CCC(=O)O)NC(=O)[C@H](C)NC(=O)[C@H](CCCNC(=N)N)NC(=O)[C@H](CCC(=O)O)NC(=O)[C@H](CCCNC(=N)N)NC(=O)[C@H](CCC(N)=O)NC(=O)[C@H](CO)NC(=O)[C@H](CCC(N)=O)NC(=O)[C@@H](NC(=O)[C@H](CCCNC(=N)N)NC(=O)[C@H](C)NC(=O)[C@H](CC(C)C)NC(=O)[C@H](CCC(=O)O)NC(=O)[C@H](CC(C)C)NC(=O)[C@H](CC(C)C)NC(=O)[C@@H](NC(=O)[C@H](CCCNC(=N)N)NC(=O)[C@H](CC(C)C)NC(=O)[C@H](CC(C)C)NC(=O)[C@H](Cc1ccccc1)NC(=O)[C@H](CC(C)C)NC(=O)[C@@H]1CCCN1C(=O)[C@H](CC(C)C)NC(=O)[C@H](CC(=O)O)NC(=O)[C@@H](NC(=O)[C@H](CO)NC(=O)[C@H](CC(C)C)NC(=O)[C@H](CO)NC(=O)[C@@H]1CCCN1C(=O)[C@H](CC(N)=O)NC(=O)[C@@H](N)CC(=O)O)[C@@H](C)CC)[C@@H](C)O)[C@@H](C)O)C(=O)N[C@H](C(=O)N[C@@H](Cc1ccccc1)C(=O)N[C@@H](C)C(=O)N[C@@H](CO)C(=O)N[C@H](C(N)=O)C(C)C)[C@@H](C)CC [compound 178] (H-DNPSLSIDLPLFLLRTLLELARTQSQRERAEQNAIIFASV-NH2; N-terminus assumed) | – | – | – | 96.5% | – | 55.7% |
| NDDPPISIDLPLLLLRNMIEMARIENEREQAGLNAKYLAEV-NH2 [compound 268] | – | – | – | 59% | – | 14.2% |
| SQEPPISLDLPFGLLREVLEMTKADQLAQQAHSNRKLLDIA-NH2 [compound 103] | – | – | – | 4.85% | – | 5.75% |
| SQEPPISLDLPLHLLREVLEMTKADQLAQQAHSNRKLLDIA-NH2 [compound 102] | – | – | – | 13.5% | – | 7.8% |
| CC[C@H](C)[C@H](NC(=O)[C@H](C)NC(=O)[C@H](CC(N)=O)NC(=O)[C@H](CCC(N)=O)NC(=O)[C@H](CCC(=O)O)NC(=O)[C@H](C)NC(=O)[C@H](CCCNC(=N)N)NC(=O)[C@H](CCC(=O)O)NC(=O)[C@H](CCCNC(=N)N)NC(=O)[C@H](CCC(N)=O)NC(=O)[C@H](CO)NC(=O)[C@H](CCC(N)=O)NC(=O)[C@@H](NC(=O)[C@H](CCCNC(=N)N)NC(=O)[C@H](C)NC(=O)[C@H](CC(C)C)NC(=O)[C@H](CCC(=O)O)NC(=O)[C@H](CC(C)C)NC(=O)[C@H](CC(C)C)NC(=O)[C@@H](NC(=O)[C@H](CCCNC(=N)N)NC(=O)[C@H](CC(C)C)NC(=O)[C@H](CC(C)C)NC(=O)[C@@H](NC(=O)[C@H](CC(C)C)NC(=O)[C@@H]1CCCN1C(=O)[C@H](CC(C)C)NC(=O)[C@H](CC(=O)O)NC(=O)[C@@H](NC(=O)[C@H](CO)NC(=O)[C@H](CC(C)C)NC(=O)[C@H](CO)NC(=O)[C@@H]1CCCN1C(=O)[C@H](CC(N)=O)NC(=O)[C@@H](N)CC(=O)O)[C@@H](C)CC)[C@@H](C)CC)[C@@H](C)O)[C@@H](C)O)C(=O)N[C@H](C(=O)N[C@@H](Cc1ccccc1)C(=O)N[C@@H](C)C(=O)N[C@@H](CO)C(=O)N[C@H](C(N)=O)C(C)C)[C@@H](C)CC [compound 175] (H-DNPSLSIDLPLILLRTLLELARTQSQRERAEQNAIIFASV-NH2; N-terminus assumed) | – | – | 8.27 | 92.2% | ≤ 6.00 | 34.8% |
| NDDPPISIDLPLYLLRNMIEMARIENEREQAGLNAKYLAEV-NH2 [compound 271] | – | – | 7.32 | 69% | 6.09 | 80.7% |
| SQEPPISLDLTIGLLREVLEMTKADQLAQQAHSNRKLLDIA-NH2 [compound 86] | – | – | – | 8.1% | – | 4.6% |
| CC[C@H](C)[C@H](N)C(=O)N[C@H](C(=O)N[C@@H](CC(C)C)C(=O)N[C@@H](CO)C(=O)N[C@@H](CC(C)C)C(=O)N[C@@H](CC(=O)O)C(=O)N[C@H](C(=O)N1CCC[C@H]1C(=O)N[C@H](C(=O)NCC(=O)N[C@@H](CC(C)C)C(=O)N[C@@H](CC(C)C)C(=O)N[C@@H](CCC(N)=O)C(=O)N[C@H](C(=O)N[C@@H](CC(C)C)C(=O)N[C@@H](CC(C)C)C(=O)N[C@@H](CCC(=O)O)C(=O)N[C@@H](CCC(N)=O)C(=O)N[C@@H](C)C(=O)N[C@@H](CCCNC(=N)N)C(=O)N[C@@H](C)C(=O)N[C@@H](CCC(=O)O)C(=O)N[C@@H](C)C(=O)N[C@@H](C)C(=O)N[C@@H](CCCNC(=N)N)C(=O)N[C@@H](CCC(=O)O)C(=O)N[C@@H](CCC(N)=O)C(=O)N[C@@H](C)C(=O)N[C@H](C(=O)N[C@H](C(=O)N[C@@H](CC(N)=O)C(=O)N[C@@H](C)C(=O)N[C@@H](CCCNC(=N)N)C(=O)N[C@H](C(=O)N[C@@H](CC(C)C)C(=O)N[C@@H](C)C(=O)N[C@@H](CCCNC(=N)N)C(=O)N[C@H](C(N)=O)C(C)C)[C@@H](C)CC)[C@@H](C)O)[C@@H](C)O)[C@@H](C)CC)[C@@H](C)CC)C(C)C)C(C)C [compound 122] (H-IVLSLDVPIGLLQILLEQARAEAAREQATTNARILARV-NH2; N-terminus assumed) | – | – | – | 97% | – | 10.7% |
| NDDPPISIDLPYYLLRNMIEMARIENEREQAGLNAKYLAEV-NH2 [compound 267] | – | – | – | 44.2% | – | 22.8% |
